This note sets out measurements from patent US8044198B2, “Sirtuin modulating compounds” (Sirtris Pharmaceuticals, Inc., priority 2005, dated 2011).

The target of this assay is T1, SIRT1 (Homo sapiens, UniProt Q96EB6).
T1 sequence (Q96EB6 1-747): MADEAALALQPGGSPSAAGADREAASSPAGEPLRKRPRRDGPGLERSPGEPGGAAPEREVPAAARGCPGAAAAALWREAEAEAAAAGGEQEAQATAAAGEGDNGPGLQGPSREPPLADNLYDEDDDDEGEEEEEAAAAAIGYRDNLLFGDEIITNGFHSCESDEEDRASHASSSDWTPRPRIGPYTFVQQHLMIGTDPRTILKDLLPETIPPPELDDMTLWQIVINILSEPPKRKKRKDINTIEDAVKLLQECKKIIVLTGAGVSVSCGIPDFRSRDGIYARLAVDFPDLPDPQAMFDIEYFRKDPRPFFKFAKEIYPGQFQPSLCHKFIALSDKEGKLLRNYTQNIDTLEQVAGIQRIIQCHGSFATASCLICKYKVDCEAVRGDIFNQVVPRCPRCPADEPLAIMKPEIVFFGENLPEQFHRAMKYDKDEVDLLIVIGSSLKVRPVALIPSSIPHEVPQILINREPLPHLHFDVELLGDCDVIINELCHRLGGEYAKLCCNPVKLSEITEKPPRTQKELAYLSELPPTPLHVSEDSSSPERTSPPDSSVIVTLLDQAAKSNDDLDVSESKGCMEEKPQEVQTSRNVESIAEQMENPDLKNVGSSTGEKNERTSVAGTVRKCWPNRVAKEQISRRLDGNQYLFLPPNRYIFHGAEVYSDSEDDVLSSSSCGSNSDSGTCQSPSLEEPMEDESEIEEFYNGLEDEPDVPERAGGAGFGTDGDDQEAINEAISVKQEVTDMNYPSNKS
Kind of assay: SIRT1 mass spectrometry (MS) based deacetylation assay. As to FOLD ACT. MS: test concentration or dose not given here. The assay is classed as biochemical. The settings on record: for EC50: mass spectrometry assay, read-out: ED50 MS ASSAY.

[1] abbreviates: Sirt1 activators, fold activation as determined by MS.
Setting [2] is: fold activation of SIRT1, mass spectrometry assay.
The mark [3] stands for this setting: fold activation of SIRT1 as determined by MS.
Setting [4] is: SIRT1 fold activation as determined by MS.

Like-named read-outs stand apart in the source and are kept apart here.

With `COc1cc(C(=O)Nc2ccccc2-c2nc3ccccc3[nH]2)ccc1CN1CCOCC1` [Compound 503], the “FOLD ACT. MS” value under setting [1] was “A (A (Fold activation >250%))”. Also, the EC50 (Sirt1 activators) is < 5 µM. Taken in the same sequence, the figures for `COc1cc(C(=O)Nc2ccccc2-c2nc3cccnc3[nH]2)ccc1CN(C)C` [Compound 540] were “A (A (Fold activation >250%))” and 5 to 50 µM. Regarding `COc1cc(C(=O)Nc2ccccc2-c2cn3cc(CN4CCNCC4)sc3n2)cc(OC)c1OC` [Compound 271], the EC50 (SIRT1 activation) was < 5 µM. In addition, the “FOLD ACT. MS” value under setting [2] is on record as “A (A (Fold activation >250%))”. For `COc1cc(C(=O)Nc2ccccc2-c2cn3c(n2)CCCC3)cc(OC)c1OC` [Compound 546], the “FOLD ACT. MS” value under setting [1] is “B (B (Fold Activation <250%))”. For the setting “Sirt1 activators”, the EC50 was 5 to 50 µM. For `O=C(Nc1ccccc1-c1nc2ccccc2[nH]1)c1cnc2ccccc2n1` [Compound 508] the same measures were “A (A (Fold activation >250%))” and < 5 µM. For the molecule `CN(C)c1cccc(C(=O)Nc2cccc(-c3nc4ncccc4o3)n2)c1` [Compound 64], the EC50 (SIRT1 activation) is 5 to 50 µM. As to `COc1ccc(C(=O)Nc2cccc(-c3nc4cnccc4o3)c2)c(OC)c1` [Compound 296], the EC50 (SIRT1 activation) fell in the range of 5 to 50 µM. Also, under setting [2], the “FOLD ACT. MS” value is given as “B (B (Fold Activation <250%))”. Consider `COc1ccc(C(=O)Nc2cccc(-c3cc4cccnc4o3)c2)cc1OC` [Compound 192], for which, where the note is “SIRT1 activation”, the EC50 lay in the range of 5 to 50 µM. Under setting [3], the “FOLD ACT. MS” value was “B (B (Fold Activation <250%))”.

For the molecule `CC(=O)Nc1ccc(S(=O)(=O)Nc2cccc(-c3nc4ccncc4s3)c2)cc1` [Compound 288], the EC50 (SIRT1 activation) lay in the range of 5 to 50 µM. Moreover, the “FOLD ACT. MS” value under setting [2] is on record as “B (B (Fold Activation <250%))”. Consider `COc1cc(C(=O)Nc2cccc(-c3nc4ccccc4c(=O)o3)c2)cc(OC)c1OC` [Compound 125], for which the “FOLD ACT. MS” value under setting [3] is recorded as “B (B (Fold Activation <250%))”. In the case of `O=C(Nc1ccccc1-c1cn2c(CN3CCNCC3)csc2n1)c1cc2ccccc2s1` [Compound 544], the “FOLD ACT. MS” value under setting [1] was “A (A (Fold activation >250%))”. For the same molecule, the EC50 (Sirt1 activators) fell in the range of 5 to 50 µM. As for `COc1cc(C(=O)Nc2ccccc2-c2nc3cnccc3s2)cc(OC)c1OC` [Compound 319], the EC50 (SIRT1 activation) is < 5 µM. Further, the “FOLD ACT. MS” value under setting [2] is “B (B (Fold Activation <250%))”. With `N#Cc1cccc(C(=O)Nc2ccccc2-c2nc3cc(CN4CCOCC4)cnc3s2)c1` [Compound 685], where the note is “SIRT1 activation”, the EC50 was < 5 µM. The “FOLD ACT. MS” value under setting [4] is on record as “B (B (Fold Activation <250%))”. For `Cc1csc2nc(-c3ccccc3NC(=O)c3cnc4ccccc4n3)cn12` [Compound 707] the same measures were < 5 µM and “A (A (Fold activation >250%))”. For `O=C(Nc1ccccc1-c1nc2cc(CN3CCNCC3)cnc2s1)c1cnc2ccccc2n1` [Compound 622], under setting [1], the “FOLD ACT. MS” value was “A (A (Fold activation >250%))”. For the same molecule, where the note is “Sirt1 activators”, the EC50 is < 5 µM.

Turning to `CN(C)Cc1cc(NC(=O)c2cccc(N(C)C)c2)cc(-c2nc3ncccc3o2)c1` [Compound 157], the EC50 (SIRT1 activation) was > 150 µM. Moreover, the “FOLD ACT. MS” value under setting [3] is given as “B (B (Fold Activation <250%))”. In the case of `O=C(Nc1ccccc1-c1cn2c(CO)csc2n1)c1cnc2ccccc2n1` [Compound 648], the “FOLD ACT. MS” value under setting [1] is given as “B (B (Fold Activation <250%))”. In addition, the EC50 (Sirt1 activators) is < 5 µM.

As to `COc1ccc(C(=O)Nc2cccc(-c3nc4cnccc4o3)c2)c(OC)c1OC` [Compound 343], the EC50 (SIRT1 activation) was in the range of 5 to 50 µM. For the same molecule, the “FOLD ACT. MS” value under setting [2] is recorded as “B (B (Fold Activation <250%))”.

For `COc1ccc(C(=O)Nc2ccccc2-c2nc3cccnc3[nH]2)cc1` [Compound 531], under setting [1], the “FOLD ACT. MS” value is “B (B (Fold Activation <250%))”. In addition, under “Sirt1 activators”, the EC50 is < 5 µM. On to `COc1cc(C(=O)Nc2ccccc2-c2cn3ccccc3n2)cc(OC)c1OC` [Compound 267], for which the EC50 (SIRT1 activation) is < 5 µM. Further, under setting [2], the “FOLD ACT. MS” value was “B (B (Fold Activation <250%))”. In the case of `O=C(Nc1ccccc1-c1cn2cc(CN3CCNCC3)sc2n1)c1cnc2ccccc2n1` [Compound 513], under setting [1], the “FOLD ACT. MS” value was “A (A (Fold activation >250%))”. In addition, the EC50 (Sirt1 activators) was < 5 µM. Taken in the same sequence, the figures for `COc1cc(C(=O)Nc2cc(-c3nc4ncccc4o3)ccn2)ccc1CN1CCCC1` [Compound 572] were “B (B (Fold Activation <250%))” and 51 to 100 µM. With `O=C(Nc1cccc(-c2nc3nc(CN4CCNCC4)ccc3o2)c1)c1cnc2ccccc2n1` [Compound 514], the “FOLD ACT. MS” value under setting [1] is given as “B (B (Fold Activation <250%))”. Moreover, the EC50 (Sirt1 activators) fell in the range of 5 to 50 µM. Turning to `O=C(Nc1ccccc1-c1nc2cc(CN3CCNCC3)cnc2s1)c1ccc2ncsc2c1` [Compound 730], where the note is “SIRT1 activation”, the EC50 was 5 to 50 µM. Also, the “FOLD ACT. MS” value under setting [4] is “A (A (Fold activation >250%))”.

`COC(=O)c1cc(NC(=O)c2cc(OC)c(OC)c(OC)c2)cc(-c2nc3ccncc3s2)c1` [Compound 133, methyl 3-(thiazolo[5,4-c]pyridin-2-yl)-5-(3,4,5-trimethoxybenzamido)benzoate]: the EC50 (SIRT1 activation) is < 5 µM. In addition, under setting [3], the “FOLD ACT. MS” value is “B (B (Fold Activation <250%))”. For `CC(C)(C)OC(=O)CNCc1csc2nc(-c3ccccc3NC(=O)c3cnc4ccccc4n3)cn12` [Compound 711], for the setting “SIRT1 activation”, the EC50 lay in the range of 5 to 50 µM. Moreover, the “FOLD ACT. MS” value under setting [4] is “B (B (Fold Activation <250%))”. On to `CC(=O)N1CCN(Cc2csc3nc(-c4ccccc4NC(=O)c4cnc5ccccc5n4)cn23)CC1` [Compound 651], for which the “FOLD ACT. MS” value under setting [1] is “A (A (Fold activation >250%))”. Besides, for the setting “Sirt1 activators”, the EC50 was < 5 µM. For the molecule `O=C(Nc1ccccc1-c1cn2c(Cn3ccnc3)csc2n1)c1cnc2ccccc2n1` [Compound 745], the EC50 (SIRT1 activation) is < 5 µM. The “FOLD ACT. MS” value under setting [4] is recorded as “A (A (Fold activation >250%))”.

On to `COc1ccc(C(=O)Nc2ccccc2-c2nc3ccncc3s2)cc1OC` [Compound 162], for which, for the setting “SIRT1 activation”, the EC50 is < 5 µM. For the same molecule, under setting [3], the “FOLD ACT. MS” value is on record as “B (B (Fold Activation <250%))”. As for `O=C(Nc1ccccc1-c1cn2c(CN3CCNCC3)csc2n1)c1cnc2ccccc2c1` [Compound 645], the “FOLD ACT. MS” value under setting [1] is “A (A (Fold activation >250%))”. The EC50 (Sirt1 activators) is < 5 µM. On to `O=C(Nc1ccccc1-c1cn2c(CN3CCNCC3)csc2n1)c1cccc(-c2ccccc2)c1` [Compound 710], for which the EC50 (SIRT1 activation) was < 5 µM. Further, the “FOLD ACT. MS” value under setting [4] was “A (A (Fold activation >250%))”. On to `CN(C)c1cccc(C(=O)Nc2cccc(-c3nc4cnccc4o3)c2)c1` [Compound 311], for which the EC50 (SIRT1 activation) was in the range of 5 to 50 µM. Moreover, the “FOLD ACT. MS” value under setting [2] is on record as “B (B (Fold Activation <250%))”.

On to `COc1ccc(C(=O)Nc2ccccc2-c2cn3c(CN4CCNCC4)csc3n2)c(OC)c1` [Compound 326], for which the EC50 (SIRT1 activation) was 5 to 50 µM. Further, the “FOLD ACT. MS” value under setting [2] is “B (B (Fold Activation <250%))”. Regarding `COc1cc(C(=O)Nc2ccccc2-c2nc3ccccc3[nH]2)ccc1CN1CCCC1` [Compound 587], under setting [1], the “FOLD ACT. MS” value was “B (B (Fold Activation <250%))”. For the same molecule, for the setting “Sirt1 activators”, the EC50 is < 5 µM. Consider `COc1ccc(C(=O)Nc2ccccc2-c2cn3c(CN4CCOCC4)csc3n2)cc1OC` [Compound 209], for which the EC50 (SIRT1 activation) fell in the range of 5 to 50 µM. Besides, under setting [3], the “FOLD ACT. MS” value is listed as “A (A (Fold activation >250%))”. Turning to `O=C(Nc1ccccc1-c1cn2c(CN3CCNCC3)csc2n1)c1cnccn1` [Compound 543], under setting [1], the “FOLD ACT. MS” value was “A (A (Fold activation >250%))”. Also, the EC50 (Sirt1 activators) is < 5 µM. In the case of `CN1CCN(C(=O)Cc2csc3nc(-c4ccccc4NC(=O)c4cnc5ccccc5n4)cn23)CC1` [Compound 649], the “FOLD ACT. MS” value under setting [1] is on record as “A (A (Fold activation >250%))”. Further, under “Sirt1 activators”, the EC50 is < 5 µM. Regarding `COc1cc(C(=O)Nc2cncc(-c3nc4ncccc4o3)c2)cc(OC)c1OC` [Compound 66], the EC50 (SIRT1 activation) fell in the range of 5 to 50 µM. On the same count and under the same terms, then `COc1ccc(S(=O)(=O)Nc2ccccc2-c2nc3ccccc3[nH]2)cc1OC` [Compound 143], with > 150 µM.

Consider `O=C(Nc1ccccc1-c1nc2ccc(CN3CCNCC3)nc2s1)c1ccc2ccccc2n1` [Compound 729], for which the EC50 (SIRT1 activation) is < 5 µM. For the same molecule, the “FOLD ACT. MS” value under setting [4] is “A (A (Fold activation >250%))”. `COc1ccc(C(=O)Nc2ccccc2-c2nc3ccccn3c2CN2CCNCC2)cc1OC` [Compound 364]: the EC50 (SIRT1 activation) is > 150 µM. Under setting [2], the “FOLD ACT. MS” value is recorded as “A (A (Fold activation >250%))”. Take `COc1cc(C(=O)Nc2ccccc2-c2nc3cc(CN4CCN(C)CC4)cnc3s2)cc(OC)c1OC` [Compound 702]: the EC50 (SIRT1 activation) lay in the range of 5 to 50 µM. Also, the “FOLD ACT. MS” value under setting [4] was “A (A (Fold activation >250%))”. With `COc1cc(C(=O)Nc2cccc(-c3cccnc3)c2)cc(OC)c1OC` [Compound 333], the EC50 (SIRT1 activation) is 5 to 50 µM. Besides, the “FOLD ACT. MS” value under setting [2] is given as “B (B (Fold Activation <250%))”. Regarding `COC(=O)c1cc(NC(=O)c2ccc(OC)c(OC)c2)cc(-c2nc3ncccc3o2)c1` [Compound 136, Methyl 3-(3,4-dimethoxybenzamido)-5-(oxazolo[4,5-b]pyridin-2-yl)benzoate], the EC50 (SIRT1 activation) is > 150 µM.
